From US8785402B2, “Compositions and assays for treatment and diagnosis of helicobacter pylori infection and conditions” (Academia Sinica, priority 2009, dated 2014)
“Also recorded” adds a separate entry of the source.

Legend:
[1] = test system: H. pylori-infected AGS cells; test: Immunoblot of translocated CagA (adhesion efficiency of H. pylori) in infected AGS cells; assay type: cell-based, human; conditions: 100 μM FNJ
Description: (§1) FIG. 8A-8D collectively provide immunoblot analysis of epithelial cells infected with H. pylori using mouse monoclonal anti-CagA. Capan 1 and AGS cells were infected with different H. pylori strains, including CagA^+ and CagA^−, and various clinical isolates from patients with gastritis (GS), duodenal ulcer (DU) and gastric cancer (GC). PBS represents the negative control. The co-culture was maintained for 6-8 h at an MOI of ˜200:1. In the parallel experiments, Capan 1 (a) and AGS cells (c) were infected under the same conditions. The effect of α-L-fucosidase was evaluated by addition of 100 μM FNJ to the co-cultures of Capan 1 (b) and AGS cells (d) with various H. pylori strains.
(§2) FIG. 9 illustrates immunoblot analysis of H. pylori-infected epithelial cells with mouse monoclonal anti-CagA. Capan 1 and AGS cells were infected with different H. pylori strains that were clinical isolates from five different patients with duodenal ulcer (DU). PBS was used as a negative control in the absence of H. pylori. The co-culture was maintained for 6-8 h at an MOI of ˜200:1. […] The effect of α-L-fucosidase was evaluated by addition of 100 μM of the α-L-fucosidase inhibitor, FNJ, to co-cultures of Capan 1 (b) and AGS cells (d) with the indicated H. pylori strains. […]
(§3) CagA of H. pylori was the first reported bacterial virulence protein translocated by a type IV secretion system (Stein, et al., Proc. Natl. Acad. Sci. USA 2000, 97:1263-1268). Translocated CagA protein can be detected inside host cells soon after H. pylori attachment. The adhesion efficiency of H. pylori can be thus measured by monitoring the level of translocated CagA inside host cells. […] The epithelial cell lysates were analyzed by SDS-PAGE 6-8 h after infection and immunoblotted with a CagA-specific monoclonal antibody. CagA (˜140 kDa) was detected when mock-transfected Capan 1 cells were infected with each different H. pylori strain (FIG. 7B). Nonetheless, CagA was not detected upon Capan 1-FUCA2 K.D. infection with the different H. pylori strains, with the exception of GS (FIG. 7C). […]

[2] = test system: Le^x antigen in H. pylori; test: Anti-Le^x immunoblot of H. pylori lysates after co-culture with Capan 1 cells; assay type: cell-based, Helicobacter pylori
Description: (§4) FIGS. 11A-11D collectively show immunoblot analysis of H. pylori-infected Capan 1 and AGS cells with mouse monoclonal anti-Le^x antigen. Capan 1 and AGS cells were infected with different H. pylori strains (from DU-152 to DU-157) that were clinical isolates from six different patients with duodenal ulcer (DU). PBS represents a negative control in the absence of H. pylori. The co-culture was maintained for 12 h at an MOI of ˜400:1. In the parallel experiments, Capan 1 (11a) and AGS cells (11c) were infected under the same conditions. The effect of α-L-fucosidase was evaluated by addition of 100 μM FNJ to the co-cultures of Capan 1 (11b) and AGS cells (11d) with various H. pylori strains. The bacterial cells were collected and lysed for Le^x analysis.
(§5) The secretion of FUCA2 directly results in the extracellular production of L-fucose residues that are then incorporated into H. pylori. It is important to determine if the L-fucose-related biosynthesis is affected at the same time. […] The H. pylori cell lysates were analyzed by SDS-PAGE 12 h after infection and immunoblotted with a Le^x-specific monoclonal antibody. […] In contrast, Le^x-containing glycoproteins were detected in substantial amounts without FNJ treatment (FIGS. 11A and 11C, corresponding to H. pylori-infected Capan 1 and AGS cells, respectively).

[3] = test system: H. pylori-infected AGS cells; test: Transfer of 6-azido-L-fucose from AGS host cells to H. pylori; assay type: cell-based, human; conditions: 100 μM FNJ
From the text: (§6) A considerable proportion of H. pylori in the stomach is located at the epithelial mucosa (Schreiber S, et al. Proc. Natl. Acad. Sci. USA 2004, 101:5024-5029) where there are various fucose-containing oligosaccharides including Lewis antigens. To determine if H. pylori acquires L-fucose from host cells, similar to the interaction between B. thetaiotaomicron and small intestine cells (Hooper, et al. Proc. Natl. Acad. Sci. USA 1999, 96:9833-9838), the click chemistry-based fluorogenic labeling method developed by Wong and coworkers (Sawa M, et al. Proc. Natl. Acad. Sci. USA 2006, 103:12371-12376) was applied to detect fucosylated glycoconjugates. […]
as §3, with “7B).” for “7B). Nonetheless, CagA was not detected upon Capan 1-FUCA2 K.D. infection with the different H. pylori strains, with the exception of GS (FIG. 7C).”

[4] = test system: H. pylori-infected Capan 1 cells; test: Immunoblot of translocated CagA (adhesion efficiency of H. pylori) in infected Capan 1 cells; assay type: cell-based, human; conditions: Capan 1, 100 μM FNJ
Description: as §1, §2, §3

[5] = test system: H. pylori-infected Capan 1 cells; test: Transfer of 6-azido-L-fucose from Capan 1 host cells to H. pylori; assay type: cell-based, human; conditions: Capan 1, 100 μM FNJ
From the text: as §6
as §3, with “7B).” for “7B). Nonetheless, CagA was not detected upon Capan 1-FUCA2 K.D. infection with the different H. pylori strains, with the exception of GS (FIG. 7C).”

H. pylori = test: Adherence of H. pylori to host cells on treatment of infected cells; assay type: cell-based, Helicobacter pylori; conditions: summary statement; host cells not specified
From the text: CagA of H. pylori was the first reported bacterial virulence protein translocated by a type IV secretion system (Stein, et al., Proc. Natl. Acad. Sci. USA 2000, 97:1263-1268). Translocated CagA protein can be detected inside host cells soon after H. pylori attachment. The adhesion efficiency of H. pylori can be thus measured by monitoring the level of translocated CagA inside host cells. Four different epithelial cell lines were chosen for the study, namely mock-transfected Capan 1, Capan 1-FUCA2 K.D., Capan 1, and AGS cells. Isogenic vacA (CagA+), cagA (CagA−) mutants, and clinical isolates from patients with gastritis (GS), duodenal ulcer (DU), and gastric cancer (GC) were selected for co-culturing with the four epithelial cell lines. The epithelial cell lysates were analyzed by SDS-PAGE 6-8 h after infection and immunoblotted with a CagA-specific monoclonal antibody. CagA (˜140 kDa) was detected when mock-transfected Capan 1 cells were infected with each different H. pylori strain (FIG. 7B). Nonetheless, CagA was not detected upon Capan 1-FUCA2 K.D. infection with the different H. pylori strains, with the exception of GS (FIG. 7C). […] In contrast, CagA was detected in substantial amounts without FNJ treatment (FIGS. 8A and 8C, corresponding to the results of Capan 1 and AGS cells, respectively).

[6] = test system: Le^x antigen in H. pylori; test: Anti-Le^x immunoblot of H. pylori lysates after co-culture with AGS cells; assay type: cell-based, Helicobacter pylori; conditions: 100 μM FNJ, DU-152 to DU-157, 12 h, MOI ~400:1
Description: as §4, §5

human FUT3 and FUT6 = test: Anti-Fut 3/6 immunoblot of Capan 1 cells infected with H. pylori; assay type: cell-based; conditions: Capan 1 cells pre-treated with H. pylori and 50 nM FNJ for 4 h
Description: Lane A, extract of Capan 1 cells. Lane B, extract of Capan 1 cells pre-treated with H. pylori for 4 h. Lanes C, C′, duplicate independent experiments of extract of Capan 1 cells pre-treated with H. pylori and 50 nM of the α-L-fucosidase inhibitor, FNJ, for 4 h.
L-Fucose is a likely source of utilizable carbon and energy because it is located at the termini of mammalian glycoconjugates. L-Fucose is an abundant component of many host gastric mucosa glycoconjugates (Madrid, et al., J. Histochem. Cytochem 1998, 46:1311-1320) that are constitutively synthesized by host cells. Thus, the “request” from H. pylori to manufacture fucosylated glycans may require the host to activate translation of one or more of its fucosyltransferase proteins.

[7] = DU strains DU-152, DU-153, DU-154, DU-155, DU-157
[8] = DU- or GC-specific H. pylori strains, 6-8 h, MOI ~200:1
[9] = GS-specific H. pylori strain, 6-8 h

CC1NC(CN)C(O)C(O)C1O (stereo not shown) [FNJ, 1-aminomethyl-1-deoxy-fuconojirimycin]
CagA present in host cells [1, 7]: no longer present
CagA detected in host cells [1, 8]: consistent with those obtained in AGS cells
level of CagA [1, 9]: not affected
Le^x-expression level in H. pylori ([2]; Capan 1, 100 μM FNJ, DU-152 to DU-157, 12 h, MOI ~400:1): considerably reduce; also recorded: significantly less
level of Le^x-containing glycoproteins in H. pylori ([2]; summary statement, host cells not specified): significantly reduced
transfer of 6-azido-L-fucose from host cells to H. pylori [3]: considerably reduce
CagA present in host cells [4, 7]: no longer present
CagA detected in host cells [4, 8]: no or little CagA was detected
level of CagA [4, 9]: not affected
transfer of 6-azido-L-fucose from host cells to H. pylori [5]: considerably reduce
adherence of H. pylori to host cells (H. pylori): effectively prevented adherence
Le^x-expression level in H. pylori [6]: considerably reduce; also recorded: significantly less
expression of human FUT3 and FUT6 (human FUT3 and FUT6): decreased substantially
